This passage reports inhibition in vivo results from US4002623A, “Anti-inflammatory 1-[3-(dialkylamino)propyl]-2-acylaminobenzimidazoles and 2-acylamino-3-[3-(dialkylamino)-propyl]imidazo[4,5-b]pyridines” (Pfizer Inc., priority 1974, dated 1977).

The nature of one test: adjuvant arthritis screen (Walz et al.), swelling of the non-injected left hind foot on Day 16. The class given is in vivo, male inbred Lewis rats. Particulars: Rattus norvegicus, 384 h, 10 mg./kg. ip, daily day -1 through day 15, read-out: Activity Percent Inhibition. The text has this:
The adjuvant arthritis test described by Walz et al., Ann. Rheum. Dis., 30, 303 (1971) was selected as the method of choice for the determination of the extent of which the novel compounds of the present invention are therapeutically effective as anti-inflammatory agents. Adjuvant arthritis is a crippling deformity in rats resulting from diffuse connective tissue involvement. It is considered by some authorities to be the best available experimental animal model of human rheumatoid arthritis because of its strong clinical and pathological similarities to the human disease and because it can be effectively treated with known anti-arthritic drugs. In this test, lesions resembling those of human rheumatoid arthritis are induced by the injection of complete Freund's adjuvant into one hind leg of a rat. A vigorous inflammatory response occurs in the injected hind leg and reaches its greatest size in about four days. This primary response is followed by the development of a second inflammatory response, appearing about 12-16 days post-injection, that occurs in the uninjected hind leg. While the compounds of the invention are capable of inhibiting the degree of inflammation in both legs, the inhibition of swelling in the uninjected leg at 16 days is considered to be the more meaningful measure of antiarthritic activity.
The adjuvant arthritis screen as described by Walz et al. (Ann. Rheum. Dis., 30: 303 (1971), was used to evaluate the above prepared compounds.
The screen is conducted using male inbred Lewis rats weighing approximately 250 gm. The animals are dosed with drug beginning on day- 1 and continuing daily through day 15. On Day 0, the subplanter surface of the right hind paw is injected with 0.1cc of a 1% suspension of Mycobacterium butyricum (Freunds adjuvant) in Primol (Esso). The swelling of the non-injected left hind foot on Day 16, resulting from immune response to adjuvant, was determined for dosed animals and controls. The foot volume is measured by immersing the paw to the anatomical hairline into a mercury reservoir which is connected to a Statham pressure transducer and a recording device. The results are expressed as % inhibition calculated according to the following equation: [formula] The results obtained are as follows for [drawing 22] where Z is --N(CH3)2 and X is carbon: […]
As to `O=C(Nc1nc2ccccc2n1CCCN1CCN(Cc2ccccc2)CC1)c1ccc(Cl)c(Cl)c1` [3,4-Dichlorophenyl; H; H; drawing 27], the inhibition in vivo at 10 mg/kg was determined as 19%.

The same test, now with this note: Rattus norvegicus, 384 h, 10 mg./kg. po, daily day -1 through day 15, read-out: Activity Percent Inhibition.
As for `CN(C)CCCn1c(NC(=O)c2ccc(Cl)c(Cl)c2)nc2ccccc21` [3,4-Dichlorophenyl; H; H; Z = N(CH3)2], the inhibition in vivo at 10 mg/kg worked out at 13%.

On to `CN1CCN(CCCn2c(NC(=O)c3ccc(Cl)c(Cl)c3)nc3ccccc32)CC1` [3,4-Dichlorophenyl; H; H; drawing 24, 1-[3-(4-methyl-1-piperazinyl)propyl]-2-(3,4-dichlorobenzamido)benzimidazole], for which the inhibition in vivo at 10 mg/kg was 32%.

`CN1CCN(CCCn2c(NC(=O)c3ccc(Cl)c(Cl)c3)nc3cccnc32)CC1` [3,4-Dichlorophenyl; H; H; drawing 25, 2-(3,4-dichlorobenzamido)-3-[4-(methyl-1-piperazino)-propyl]imidazo[4,5-b]pyridine]: the inhibition in vivo at 10 mg/kg turned out to be 27%.

Turning to `COc1ccc2c(c1)nc(NC(=O)c1ccc(Cl)c(Cl)c1)n2CCCN1CCN(C)CC1` [3,4-Dichlorophenyl; OCH3; H; drawing 24, 1-[3-(4-methyl-1-piperazinyl)propyl]-2-(3,4-dichlorobenzamido)-5-methoxybenzimidazole], the inhibition in vivo at 10 mg/kg was 35%.

As to `CN1CCN(CCCn2c(NC(=O)c3cccc(Cl)c3)nc3cc(Cl)ccc32)CC1` [3-Chlorophenyl; Cl; H; drawing 24], the inhibition in vivo at 10 mg/kg is -5%.

As to `Cc1ccc2nc(NC(=O)c3cccc(Cl)c3)n(CCCN3CCN(C)CC3)c2c1` [3-Chlorophenyl; H; CH3; drawing 24], the inhibition in vivo at 10 mg/kg is -5%.

On to `COc1ccc2c(c1)nc(NC(=O)c1cccc(Cl)c1)n2CCCN1CCN(C)CC1` [3-Chlorophenyl; OCH3; H; drawing 24], for which the inhibition in vivo at 10 mg/kg was -1%.

`CN1CCN(CCCn2c(NC(=O)c3cccc(Cl)c3)nc3cc(S(=O)(=O)N(C)C)ccc32)CC1` [3-Chlorophenyl; SO2 N(CH3)2; H; drawing 24, 1-[3-(4-methyl-1-piperazinyl)propyl]-2-(3-chlorobenzamido)-5-(N,N-dimethylsulfonamido)benzimidazole]: the inhibition in vivo at 10 mg/kg turned out to be 35%.

The same test, now with this note: Rattus norvegicus, 384 h, 20 mg./kg. po, daily day -1 through day 15, read-out: Activity Percent Inhibition.
With `Cc1cc2nc(NC(=O)c3cccc(C(F)(F)F)c3)n(CCCN3CCN(C)CC3)c2cc1C`, the inhibition in vivo at 20 mg/kg is 22%.

In the case of `CN1CCN(CCCn2c(NC(=O)c3cccc(C(F)(F)F)c3)nc3cc(S(=O)(=O)N(C)C)ccc32)CC1`, the inhibition in vivo at 20 mg/kg came to 22%.

For `CN1CCN(CCCn2c(NC(=O)c3ccc(Cl)c(Cl)c3)nc3cc(S(=O)(=O)N(C)C)ccc32)CC1`, the inhibition in vivo at 20 mg/kg stood at 31%.

Turning to `CN1CCN(CCCn2c(NC(=O)c3cc(C(F)(F)F)cc(C(F)(F)F)c3)nc3ccccc32)CC1`, the inhibition in vivo at 20 mg/kg came out at 32%.

Take `Cc1cc2nc(NC(=O)c3ccc(C(F)(F)F)cc3)n(CCCN3CCN(C)CC3)c2cc1C`: the inhibition in vivo at 20 mg/kg came out at 29%.

Turning to `CN1CCN(CCCn2c(NC(=O)c3ccc(C(F)(F)F)cc3)nc3cc(S(=O)(=O)N(C)C)ccc32)CC1`, the inhibition in vivo at 20 mg/kg turned out to be 34%.

For `CN1CCN(CCCn2c(NC(=O)c3ccco3)nc3ccccc32)CC1` [2-Furyl; H; H; drawing 24, 1-[3-(4-methyl-1-piperazinyl)propyl]-2-(2-furamido)-benzimidazole], the inhibition in vivo at 20 mg/kg was determined as 43%.

On to `Cc1cc2nc(NC(=O)c3ccc(Cl)c(Cl)c3)n(CCCN3CCN(C)CC3)c2cc1C` [3,4-Dichlorophenyl; CH3; CH3; drawing 24], for which the inhibition in vivo at 20 mg/kg came to 18%.

`Cc1ccc2nc(NC(=O)c3ccc(Cl)c(Cl)c3)n(CCCN3CCN(C)CC3)c2c1` [3,4-Dichlorophenyl; H; CH3; drawing 24]: the inhibition in vivo at 20 mg/kg turned out to be 22%.

`CN1CCN(CCCn2c(NC(=O)c3ccc(Cl)c(Cl)c3)nc3cccnc32)CC1` [3,4-Dichlorophenyl; H; H; drawing 25, 2-(3,4-dichlorobenzamido)-3-[4-(methyl-1-piperazino)-propyl]imidazo[4,5-b]pyridine]: the inhibition in vivo at 20 mg/kg is 41%.

As for `CN1CCN(CCCn2c(NC(=O)c3cccc(Cl)c3)nc3cc(C(F)(F)F)ccc32)CC1` [3-Chlorophenyl; CF3; H; drawing 24, 1-[3-(4-methyl-1-piperazinyl)propyl]-2-(3-chlorobenzamido)-5-trifluoromethylbenzimidazole], the inhibition in vivo at 20 mg/kg was determined as 45%.

`Cc1ccc2c(c1)nc(NC(=O)c1cccc(Cl)c1)n2CCCN1CCN(C)CC1` [3-Chlorophenyl; CH3; H; drawing 24]: the inhibition in vivo at 20 mg/kg turned out to be 29%.

For the compound `CN1CCN(CCCn2c(NC(=O)c3cccc(Cl)c3)nc3cccnc32)CC1` [3-Chlorophenyl; H; H; drawing 25], the inhibition in vivo at 20 mg/kg stood at 26%.

Turning to `COc1cccc(C(=O)Nc2nc3cc(C)ccc3n2CCCN2CCN(C)CC2)c1` [3-Methoxyphenyl; CH3; H; drawing 24, 1-[3-(4-methyl-1-piperazinyl)propyl]-2-(3-methoxybenzamido)-5-methylbenzimidazole], the inhibition in vivo at 20 mg/kg amounted to 37%.

Take `COc1cccc(C(=O)Nc2nc3ccc(C)cc3n2CCCN2CCN(C)CC2)c1` [3-Methoxyphenyl; H; CH3; drawing 24, 1-[3-(4-methyl-1-piperazinyl)propyl]-2-(3-methoxybenzamido)-6-methylbenzimidazole]: the inhibition in vivo at 20 mg/kg is 44%.

The test is the same for the next values; noted with them: Rattus norvegicus, 384 h, 33 mg./kg. ip, daily day -1 through day 15, read-out: Activity Percent Inhibition.
For the compound `CN(C)CCCn1c(NC(=O)c2cccc(C(F)(F)F)c2)nc2ccccc21`, the inhibition in vivo at 33 mg/kg turned out to be 21%.

Take `CN1CCN(CCCn2c(NC(=O)C34CC5CC(CC(C5)C3)C4)nc3ccccc32)CC1` [1-Adamantyl; H; H; drawing 24]: the inhibition in vivo at 33 mg/kg was 28%.

For `CN(C)CCCn1c(NC(=O)c2ccccc2Cl)nc2ccccc21` [2-Chlorophenyl; H; H; Z = N(CH3)2], the inhibition in vivo at 33 mg/kg is 15%.

Regarding `CN(C)CCCn1c(NC(=O)C=Cc2ccccc2Cl)nc2ccccc21` [2-Chlorostyryl; H; H; Z = N(CH3)2], the inhibition in vivo at 33 mg/kg worked out at 45%.

Regarding `O=C(Nc1nc2ccccc2n1CCCN1CCOCC1)c1ccccc1F` [2-Fluorophenyl; H; H; drawing 23], the inhibition in vivo at 33 mg/kg came out at 6%.

Turning to `CN(C)CCCn1c(NC(=O)c2ccc(Cl)c(Cl)c2)nc2ccccc21` [3,4-Dichlorophenyl; H; H; Z = N(CH3)2], the inhibition in vivo at 33 mg/kg was found to be 67%.

Take `CN1CCN(CCCn2c(NC(=O)c3ccc(Cl)c(Cl)c3)nc3ccccc32)CC1` [3,4-Dichlorophenyl; H; H; drawing 24, 1-[3-(4-methyl-1-piperazinyl)propyl]-2-(3,4-dichlorobenzamido)benzimidazole]: the inhibition in vivo at 33 mg/kg was 61%.

Regarding `O=C(Nc1nc2ccccc2n1CCCN1CCCCC1)c1ccc(Cl)c(Cl)c1` [3,4-Dichlorophenyl; H; H; drawing 26], the inhibition in vivo at 33 mg/kg turned out to be 25%.

`CN1CCN(CCCn2c(NC(=O)c3cc(Cl)cc(Cl)c3)nc3ccccc32)CC1` [3,5-Dichlorophenyl; H; H; drawing 24]: the inhibition in vivo at 33 mg/kg was found to be 31%.

As to `CN1CCN(CCCn2c(NC(=O)c3cccc(Cl)c3)nc3cc(C(F)(F)F)ccc32)CC1` [3-Chlorophenyl; CF3; H; drawing 24, 1-[3-(4-methyl-1-piperazinyl)propyl]-2-(3-chlorobenzamido)-5-trifluoromethylbenzimidazole], the inhibition in vivo at 33 mg/kg stood at 73%.

`CN1CCN(CCCn2c(NC(=O)c3cccc(Cl)c3)nc3cc(Cl)c(Cl)cc32)CC1` [3-Chlorophenyl; Cl; Cl; drawing 24]: the inhibition in vivo at 33 mg/kg worked out at 66%.

As to `CN1CCN(CCCn2c(NC(=O)c3cccc(Cl)c3)nc3cc(Cl)ccc32)CC1` [3-Chlorophenyl; Cl; H; drawing 24], the inhibition in vivo at 33 mg/kg is 66%.

In the case of `Cc1ccc2nc(NC(=O)c3cccc(Cl)c3)n(CCCN3CCN(C)CC3)c2c1` [3-Chlorophenyl; H; CH3; drawing 24], the inhibition in vivo at 33 mg/kg stood at 66%.

On to `CN(C)CCCn1c(NC(=O)c2cccc(Cl)c2)nc2ccccc21` [3-Chlorophenyl; H; H; Z = N(CH3)2], for which the inhibition in vivo at 33 mg/kg was determined as 33%.

For the compound `CN1CCN(CCCn2c(NC(=O)c3cccc(Cl)c3)nc3ccccc32)CC1` [3-Chlorophenyl; H; H; drawing 24], the inhibition in vivo at 33 mg/kg came to 46%.

Take `O=C(Nc1nc2ccccc2n1CCCN1CCCCC1)c1cccc(Cl)c1` [3-Chlorophenyl; H; H; drawing 26]: the inhibition in vivo at 33 mg/kg was determined as 34%.

Turning to `COc1ccc2c(c1)nc(NC(=O)c1cccc(Cl)c1)n2CCCN1CCN(C)CC1` [3-Chlorophenyl; OCH3; H; drawing 24], the inhibition in vivo at 33 mg/kg turned out to be 59%.

Turning to `CN1CCN(CCCn2c(NC(=O)c3cccc(F)c3)nc3ccccc32)CC1` [3-Fluorophenyl; H; H; drawing 24], the inhibition in vivo at 33 mg/kg was 34%.

Consider `O=C(Nc1nc2ccccc2n1CCCN1CCCCC1)c1cccc(F)c1` [3-Fluorophenyl; H; H; drawing 26], for which the inhibition in vivo at 33 mg/kg stood at 27%.

With `COc1cccc(C(=O)Nc2nc3cc(C(F)(F)F)ccc3n2CCCN2CCN(C)CC2)c1` [3-Methoxyphenyl; CF3; H; drawing 24], the inhibition in vivo at 33 mg/kg came to 46%.

As to `COc1cccc(C(=O)Nc2nc3cc(Cl)ccc3n2CCCN2CCN(C)CC2)c1` [3-Methoxyphenyl; Cl; H; drawing 24], the inhibition in vivo at 33 mg/kg came out at 17%.

Turning to `COc1cccc(C(=O)Nc2nc3ccccc3n2CCCN(C)C)c1` [3-Methoxyphenyl; H; H; Z = N(CH3)2], the inhibition in vivo at 33 mg/kg is 21%.

Still in this test, the particulars now being: Rattus norvegicus, 384 h, 33 mg./kg. po, daily day -1 through day 15, read-out: Activity Percent Inhibition.
On to `CN1CCN(CCCn2c(NC(=O)c3cccc(Cl)c3)nc3cc(S(=O)(=O)N(C)C)ccc32)CC1` [3-Chlorophenyl; SO2 N(CH3)2; H; drawing 24, 1-[3-(4-methyl-1-piperazinyl)propyl]-2-(3-chlorobenzamido)-5-(N,N-dimethylsulfonamido)benzimidazole], for which the inhibition in vivo at 33 mg/kg stood at 54%.

The test is the same for the next values; noted with them: Rattus norvegicus, 384 h, 100 mg./kg. po, daily day -1 through day 15, read-out: Activity Percent Inhibition.
On to `O=C(Nc1nc2ccccc2n1CCCN1CCOCC1)c1cccc(Cl)c1` [3-Chlorophenyl; H; H; drawing 23, 1-[3-(N-morpholino)propyl]-2-(3-chlorobenzamido)benzimidazole], for which the inhibition in vivo at 100 mg/kg is 32%.
